What was measured:
[1] = biological target: T1, CREB-binding protein/Histone acetyltransferase p300 (Homo sapiens, UniProt Q09472+Q92793); test: Inhibition of H3K27Ac (LnCaP-FGC); format: cell-based; conditions: lncap-clone-fgc
[2] = biological target: Cholecystokinin receptor type A (Homo sapiens) (UniProt P32238); test: CCK1 (CCKA) (h) CEREP ligand profiling; conditions: filed as agonist, Compound concentration 10.0 uM
[3] = biological target: Neuropeptide Y receptor type 1 (Homo sapiens) (UniProt P25929); test: Y1 (h) CEREP ligand profiling; conditions: filed as agonist, Compound concentration 10.0 uM
Chain of Neuropeptide Y receptor type 1 (Homo sapiens) (P25929 whole entry): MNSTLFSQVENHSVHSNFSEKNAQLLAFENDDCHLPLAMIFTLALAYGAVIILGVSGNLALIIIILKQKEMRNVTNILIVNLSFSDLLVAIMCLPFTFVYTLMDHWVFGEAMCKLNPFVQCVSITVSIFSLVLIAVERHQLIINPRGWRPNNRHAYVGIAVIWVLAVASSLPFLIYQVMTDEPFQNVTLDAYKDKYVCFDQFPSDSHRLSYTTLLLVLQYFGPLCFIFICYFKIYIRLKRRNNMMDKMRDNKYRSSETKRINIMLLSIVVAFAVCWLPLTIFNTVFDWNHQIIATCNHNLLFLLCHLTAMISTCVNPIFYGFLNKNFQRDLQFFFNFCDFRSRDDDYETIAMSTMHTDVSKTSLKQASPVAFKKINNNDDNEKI

[4] = biological target: cGMP-inhibited 3',5'-cyclic phosphodiesterase 3A (Homo sapiens) (UniProt Q14432); test: PDE3A (h) CEREP ligand profiling; conditions: Compound concentration 10.0 uM
[5] = biological target: Tyrosine-protein kinase JAK1 (Homo sapiens) (UniProt P23458); conditions: Compound concentration 1000.0 nM
[6] = biological target: Insulin-like growth factor 1 receptor (Homo sapiens) (UniProt P08069); conditions: Compound concentration 1000.0 nM
Chain of Insulin-like growth factor 1 receptor (Homo sapiens) (P08069 31-736 limits assumed): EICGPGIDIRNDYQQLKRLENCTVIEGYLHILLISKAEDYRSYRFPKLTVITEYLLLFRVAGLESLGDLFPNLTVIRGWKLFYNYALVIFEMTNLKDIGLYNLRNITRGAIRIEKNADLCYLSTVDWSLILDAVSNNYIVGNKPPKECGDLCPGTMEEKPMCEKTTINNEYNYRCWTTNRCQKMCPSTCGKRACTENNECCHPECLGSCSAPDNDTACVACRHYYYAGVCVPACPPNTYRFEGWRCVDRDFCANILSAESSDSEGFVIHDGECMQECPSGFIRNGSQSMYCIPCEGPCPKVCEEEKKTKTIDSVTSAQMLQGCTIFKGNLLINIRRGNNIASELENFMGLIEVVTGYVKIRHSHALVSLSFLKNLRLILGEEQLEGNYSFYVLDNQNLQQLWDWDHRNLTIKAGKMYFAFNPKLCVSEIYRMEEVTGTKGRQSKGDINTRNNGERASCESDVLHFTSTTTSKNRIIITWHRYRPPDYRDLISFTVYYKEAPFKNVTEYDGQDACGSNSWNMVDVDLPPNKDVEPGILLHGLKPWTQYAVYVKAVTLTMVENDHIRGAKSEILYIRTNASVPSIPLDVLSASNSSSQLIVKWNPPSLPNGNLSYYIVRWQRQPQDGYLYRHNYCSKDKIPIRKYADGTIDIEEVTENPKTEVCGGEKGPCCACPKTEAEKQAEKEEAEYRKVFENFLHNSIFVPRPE
Chain of Insulin-like growth factor 1 receptor (Homo sapiens) (P08069 741-1367 limits assumed): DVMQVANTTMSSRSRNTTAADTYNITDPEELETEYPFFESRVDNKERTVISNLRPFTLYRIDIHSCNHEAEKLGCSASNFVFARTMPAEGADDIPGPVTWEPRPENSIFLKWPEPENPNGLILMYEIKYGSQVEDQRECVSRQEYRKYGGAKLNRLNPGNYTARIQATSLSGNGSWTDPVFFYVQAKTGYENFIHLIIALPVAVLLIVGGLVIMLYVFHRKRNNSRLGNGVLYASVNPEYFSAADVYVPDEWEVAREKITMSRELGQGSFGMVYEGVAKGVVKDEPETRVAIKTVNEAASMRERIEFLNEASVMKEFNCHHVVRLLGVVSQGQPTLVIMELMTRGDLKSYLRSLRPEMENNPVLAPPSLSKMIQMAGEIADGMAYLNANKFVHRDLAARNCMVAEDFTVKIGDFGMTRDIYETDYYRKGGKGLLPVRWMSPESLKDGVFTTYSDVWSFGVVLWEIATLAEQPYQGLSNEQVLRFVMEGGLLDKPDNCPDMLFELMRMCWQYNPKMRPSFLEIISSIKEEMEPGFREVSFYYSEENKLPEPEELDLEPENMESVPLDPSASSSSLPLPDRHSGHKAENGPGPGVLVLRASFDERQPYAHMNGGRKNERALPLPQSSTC

[7] = biological target: Adenosine receptor A2b (Homo sapiens) (UniProt P29275); test: A2B (h) CEREP ligand profiling; conditions: filed as antagonist, Compound concentration 10.0 uM
Chain of Adenosine receptor A2b (Homo sapiens) (P29275 whole entry): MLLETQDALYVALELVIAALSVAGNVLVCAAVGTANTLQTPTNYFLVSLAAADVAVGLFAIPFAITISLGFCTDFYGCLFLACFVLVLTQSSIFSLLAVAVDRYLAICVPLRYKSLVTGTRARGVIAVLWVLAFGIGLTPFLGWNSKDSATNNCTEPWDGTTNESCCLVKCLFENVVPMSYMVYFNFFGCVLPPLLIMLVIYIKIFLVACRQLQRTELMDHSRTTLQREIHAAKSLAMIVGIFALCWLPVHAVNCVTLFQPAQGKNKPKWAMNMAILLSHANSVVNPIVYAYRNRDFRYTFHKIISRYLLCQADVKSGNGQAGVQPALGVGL

[8] = test system: Receptor-type tyrosine-protein kinase FLT3 (Homo sapiens), P36888 [UNDEFINED MUTATION]; conditions: Compound concentration 1000.0 nM
Chain of Receptor-type tyrosine-protein kinase FLT3 (Homo sapiens), P36888 [UNDEFINED MUTATION] (P36888 whole entry, looked up, change not shown): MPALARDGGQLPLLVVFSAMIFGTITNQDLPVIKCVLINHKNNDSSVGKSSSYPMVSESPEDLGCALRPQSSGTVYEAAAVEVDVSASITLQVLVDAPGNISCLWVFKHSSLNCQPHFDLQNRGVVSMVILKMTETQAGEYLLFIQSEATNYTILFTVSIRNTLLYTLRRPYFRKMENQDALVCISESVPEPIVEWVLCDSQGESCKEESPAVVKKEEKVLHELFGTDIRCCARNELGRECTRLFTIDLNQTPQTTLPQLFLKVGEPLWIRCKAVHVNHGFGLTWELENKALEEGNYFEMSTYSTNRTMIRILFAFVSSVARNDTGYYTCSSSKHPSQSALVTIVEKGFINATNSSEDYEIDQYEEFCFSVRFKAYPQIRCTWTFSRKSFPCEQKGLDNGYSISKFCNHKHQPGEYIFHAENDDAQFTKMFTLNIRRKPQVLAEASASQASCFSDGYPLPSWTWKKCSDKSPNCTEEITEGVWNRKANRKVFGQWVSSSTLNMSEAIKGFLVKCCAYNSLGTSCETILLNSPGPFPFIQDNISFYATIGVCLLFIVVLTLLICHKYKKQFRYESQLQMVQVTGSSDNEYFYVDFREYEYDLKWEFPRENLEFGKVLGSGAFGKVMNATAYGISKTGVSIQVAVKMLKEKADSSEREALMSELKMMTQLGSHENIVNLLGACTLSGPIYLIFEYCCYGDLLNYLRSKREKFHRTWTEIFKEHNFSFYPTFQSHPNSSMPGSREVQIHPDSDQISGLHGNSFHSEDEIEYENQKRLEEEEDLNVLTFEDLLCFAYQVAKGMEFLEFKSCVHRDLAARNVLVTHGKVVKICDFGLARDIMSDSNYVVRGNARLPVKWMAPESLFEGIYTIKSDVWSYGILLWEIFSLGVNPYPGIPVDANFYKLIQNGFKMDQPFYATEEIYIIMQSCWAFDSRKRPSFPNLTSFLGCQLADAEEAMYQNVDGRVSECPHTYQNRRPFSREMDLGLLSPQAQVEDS

[9] = biological target: T1, CREB-binding protein/Histone acetyltransferase p300; test: Inhibition of H3K27Ac (DU-145); format: cell-based
[10] = biological target: Prostaglandin G/H synthase 1 (Homo sapiens) (UniProt P23219); test: COX1(h) CEREP ligand profiling; conditions: Compound concentration 10.0 uM
[11] = biological target: Dual specificity mitogen-activated protein kinase kinase 1 (Homo sapiens) (UniProt Q02750); conditions: Compound concentration 1000.0 nM
[12] = biological target: Activin receptor type-2A (Homo sapiens) (UniProt P27037); conditions: Compound concentration 1000.0 nM
[13] = biological target: Ephrin type-A receptor 8 (Homo sapiens) (UniProt P29322); conditions: Compound concentration 1000.0 nM
Chain of Ephrin type-A receptor 8 (Homo sapiens) (P29322 whole entry): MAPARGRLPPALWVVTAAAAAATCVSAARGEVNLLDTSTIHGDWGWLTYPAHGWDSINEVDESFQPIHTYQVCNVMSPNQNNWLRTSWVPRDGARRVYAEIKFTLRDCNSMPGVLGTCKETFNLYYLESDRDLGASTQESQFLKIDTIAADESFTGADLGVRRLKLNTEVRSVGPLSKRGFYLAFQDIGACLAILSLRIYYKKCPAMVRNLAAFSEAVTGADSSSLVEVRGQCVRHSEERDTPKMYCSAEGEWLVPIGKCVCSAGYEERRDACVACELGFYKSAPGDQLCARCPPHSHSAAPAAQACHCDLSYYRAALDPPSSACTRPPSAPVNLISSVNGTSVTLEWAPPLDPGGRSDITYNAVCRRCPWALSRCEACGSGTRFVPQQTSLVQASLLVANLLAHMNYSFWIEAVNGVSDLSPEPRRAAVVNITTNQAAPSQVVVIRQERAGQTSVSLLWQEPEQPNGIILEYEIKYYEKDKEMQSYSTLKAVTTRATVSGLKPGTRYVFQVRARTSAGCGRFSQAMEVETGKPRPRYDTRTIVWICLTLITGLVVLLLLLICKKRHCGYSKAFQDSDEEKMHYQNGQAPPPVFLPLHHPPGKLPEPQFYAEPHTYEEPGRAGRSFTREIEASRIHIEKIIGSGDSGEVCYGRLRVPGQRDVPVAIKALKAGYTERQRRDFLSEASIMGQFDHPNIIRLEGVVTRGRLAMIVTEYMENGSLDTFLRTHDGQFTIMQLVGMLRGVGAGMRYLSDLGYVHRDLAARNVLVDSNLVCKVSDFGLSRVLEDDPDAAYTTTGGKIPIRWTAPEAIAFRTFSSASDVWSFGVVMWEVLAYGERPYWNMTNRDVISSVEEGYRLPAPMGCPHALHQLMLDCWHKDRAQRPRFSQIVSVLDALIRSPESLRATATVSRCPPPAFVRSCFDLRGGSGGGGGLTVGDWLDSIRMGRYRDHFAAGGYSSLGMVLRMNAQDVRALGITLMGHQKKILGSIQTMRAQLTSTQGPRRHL

[14] = biological target: Cyclin-dependent kinase-like 3 (Homo sapiens) (UniProt Q8IVW4); conditions: Compound concentration 1000.0 nM
Chain of Cyclin-dependent kinase-like 3 (Homo sapiens) (Q8IVW4 whole entry, looked up): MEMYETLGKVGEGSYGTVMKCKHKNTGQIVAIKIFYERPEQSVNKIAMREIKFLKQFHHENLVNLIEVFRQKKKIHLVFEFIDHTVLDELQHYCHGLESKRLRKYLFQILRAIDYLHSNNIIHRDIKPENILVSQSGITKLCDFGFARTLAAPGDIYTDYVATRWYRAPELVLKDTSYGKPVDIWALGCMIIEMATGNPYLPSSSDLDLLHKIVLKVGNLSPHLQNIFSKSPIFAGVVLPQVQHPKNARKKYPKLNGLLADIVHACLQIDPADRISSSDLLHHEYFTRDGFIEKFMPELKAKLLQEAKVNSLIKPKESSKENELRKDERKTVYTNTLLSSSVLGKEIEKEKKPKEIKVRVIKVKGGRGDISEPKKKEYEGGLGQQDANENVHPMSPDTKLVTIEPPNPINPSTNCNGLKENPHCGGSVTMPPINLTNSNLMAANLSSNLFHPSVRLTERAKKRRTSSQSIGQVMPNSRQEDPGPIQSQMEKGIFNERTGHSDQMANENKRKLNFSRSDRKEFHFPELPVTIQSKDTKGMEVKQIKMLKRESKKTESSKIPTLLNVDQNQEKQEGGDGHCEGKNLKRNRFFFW

[15] = biological target: Tyrosine-protein kinase ITK/TSK (Homo sapiens) (UniProt Q08881); conditions: Compound concentration 1000.0 nM
[16] = biological target: Calcitonin-gene-related peptide receptor, CALCRL/RAMP1 (Homo sapiens) (UniProt O60894+Q16602); test: Calcitonin Gene-Related Peptide CGRP1 CEREP ligand profiling; format: protein-complex assay; conditions: Compound concentration 10.0 uM
[17] = biological target: Cyclin-dependent kinase 15 (Homo sapiens) (UniProt Q96Q40); conditions: Compound concentration 1000.0 nM
[18] = biological target: Cyclin-dependent kinase 9 (Homo sapiens) (UniProt P50750); conditions: Compound concentration 1000.0 nM
Chain of Cyclin-dependent kinase 9 (Homo sapiens) (P50750 whole entry): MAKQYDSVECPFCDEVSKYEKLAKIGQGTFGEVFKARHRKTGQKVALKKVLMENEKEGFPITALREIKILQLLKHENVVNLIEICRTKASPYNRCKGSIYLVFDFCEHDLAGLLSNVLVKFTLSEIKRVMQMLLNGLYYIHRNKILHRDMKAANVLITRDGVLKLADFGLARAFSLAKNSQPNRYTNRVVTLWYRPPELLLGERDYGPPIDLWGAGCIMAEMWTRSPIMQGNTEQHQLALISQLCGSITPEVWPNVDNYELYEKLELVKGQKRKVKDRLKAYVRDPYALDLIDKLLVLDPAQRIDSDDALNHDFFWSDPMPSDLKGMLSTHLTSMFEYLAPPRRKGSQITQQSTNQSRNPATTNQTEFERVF

[19] = biological target: GABA-A receptor; alpha-1/beta-2/gamma-2 (Homo sapiens) (UniProt P14867+P47870+P18507); test: GABAA1 (h) (alpha 1,beta 2,gamma 2) CEREP ligand profiling; format: protein-complex assay; conditions: filed as agonist, Compound concentration 10.0 uM

CNC(=O)Nc1ccc2c(c1)[C@@]1(CC2)OC(=O)N(CC(=O)N(Cc2ccc(F)cc2)[C@@H](C)C(F)(F)F)C1=O [A-486]
IC50 [1]: > 10 µM | inhibition [2]: 1% | inhibition [3]: -10% | inhibition [4]: -1% | residual activity [5]: 93% | residual activity [6]: 100% | inhibition [7]: 1% | residual activity [8]: 99% | IC50 [9]: > 10 µM | inhibition [10]: -5% | residual activity [11]: 98% | residual activity [12]: 100% | residual activity [13]: 96% | residual activity [14]: 92% | residual activity [15]: 92% | inhibition [16]: -10% | residual activity [17]: 100% | residual activity [18]: 91% | inhibition [19]: 0%

— ChEMBL document CHEMBL4507259 (2021)
